This experiment concerns the target T1, airway epithelial sodium currents (epithelial Na+ channel, ENaC) in canine bronchial epithelia (Canis lupus familiaris, UniProt A0A8I3MKE6+A0A8I3Q679+Q95165).
T1 construct: endogenous in cells; host or cells: primary canine bronchial epithelial cells cultured at air-liquid interface, mounted in Ussing chambers
T1 sequence (A0A8I3Q679 1-649): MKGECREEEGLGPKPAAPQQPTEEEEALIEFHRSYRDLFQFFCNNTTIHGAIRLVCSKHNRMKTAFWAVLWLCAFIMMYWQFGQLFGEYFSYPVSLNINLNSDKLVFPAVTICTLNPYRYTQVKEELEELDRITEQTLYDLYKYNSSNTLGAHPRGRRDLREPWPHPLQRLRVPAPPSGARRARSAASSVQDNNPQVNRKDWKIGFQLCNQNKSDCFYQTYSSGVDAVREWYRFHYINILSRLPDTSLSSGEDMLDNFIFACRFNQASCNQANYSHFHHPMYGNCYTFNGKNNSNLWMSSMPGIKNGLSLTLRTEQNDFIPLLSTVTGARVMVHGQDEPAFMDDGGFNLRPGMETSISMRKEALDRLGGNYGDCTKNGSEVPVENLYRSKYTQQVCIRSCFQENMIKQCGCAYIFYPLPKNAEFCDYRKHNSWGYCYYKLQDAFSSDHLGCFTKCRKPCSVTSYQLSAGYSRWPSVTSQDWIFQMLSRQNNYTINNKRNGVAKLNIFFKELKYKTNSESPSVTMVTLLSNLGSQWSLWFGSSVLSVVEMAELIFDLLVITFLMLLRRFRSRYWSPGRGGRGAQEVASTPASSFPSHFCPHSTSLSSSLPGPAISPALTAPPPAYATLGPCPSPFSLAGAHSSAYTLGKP
T1 sequence (Q95165 1-641): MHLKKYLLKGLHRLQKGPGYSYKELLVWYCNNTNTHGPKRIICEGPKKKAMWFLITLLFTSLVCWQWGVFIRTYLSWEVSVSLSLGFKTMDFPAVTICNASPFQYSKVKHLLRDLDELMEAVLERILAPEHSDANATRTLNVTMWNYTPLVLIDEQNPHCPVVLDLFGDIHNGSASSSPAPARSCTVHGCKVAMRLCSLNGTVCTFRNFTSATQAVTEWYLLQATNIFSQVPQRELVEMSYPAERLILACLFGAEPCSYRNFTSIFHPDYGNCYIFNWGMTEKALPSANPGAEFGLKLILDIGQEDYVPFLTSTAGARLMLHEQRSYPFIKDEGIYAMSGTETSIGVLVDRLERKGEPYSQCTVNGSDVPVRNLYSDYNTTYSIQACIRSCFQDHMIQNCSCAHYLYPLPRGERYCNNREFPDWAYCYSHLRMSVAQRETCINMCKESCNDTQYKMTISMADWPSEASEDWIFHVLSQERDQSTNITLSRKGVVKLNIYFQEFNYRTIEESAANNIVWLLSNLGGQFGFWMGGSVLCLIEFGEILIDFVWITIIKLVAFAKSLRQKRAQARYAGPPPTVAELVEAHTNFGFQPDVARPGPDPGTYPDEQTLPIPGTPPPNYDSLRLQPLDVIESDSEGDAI
T1 sequence (A0A8I3MKE6 1-646): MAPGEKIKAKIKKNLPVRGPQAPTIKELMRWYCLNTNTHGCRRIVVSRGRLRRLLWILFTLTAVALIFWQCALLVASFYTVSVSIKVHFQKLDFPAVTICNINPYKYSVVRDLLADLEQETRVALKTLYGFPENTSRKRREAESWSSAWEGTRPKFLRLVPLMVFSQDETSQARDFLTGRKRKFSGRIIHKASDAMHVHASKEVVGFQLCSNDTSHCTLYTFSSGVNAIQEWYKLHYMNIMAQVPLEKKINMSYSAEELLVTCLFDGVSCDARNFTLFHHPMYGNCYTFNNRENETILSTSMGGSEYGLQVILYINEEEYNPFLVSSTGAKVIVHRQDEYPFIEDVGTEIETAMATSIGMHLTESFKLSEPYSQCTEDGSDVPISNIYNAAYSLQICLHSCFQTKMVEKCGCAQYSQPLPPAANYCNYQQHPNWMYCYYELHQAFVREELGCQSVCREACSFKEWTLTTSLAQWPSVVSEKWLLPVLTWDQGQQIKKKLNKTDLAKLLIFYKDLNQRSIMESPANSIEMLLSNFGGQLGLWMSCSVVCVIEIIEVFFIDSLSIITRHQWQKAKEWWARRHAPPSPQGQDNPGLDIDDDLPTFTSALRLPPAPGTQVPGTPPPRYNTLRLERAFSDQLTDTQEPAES
Description: Sodium channel blocking activity: potency in canine bronchial epithelia, short circuit current (ISC) in Ussing chambers. The experiment is classed as cell-based. To be noted: relative to amiloride as positive control. As to the method: One assay used to assess mechanism of action and/or potency of the compounds of the present invention involves the determination of lumenal drug inhibition of airway epithelial sodium currents measured under short circuit current (ISC) using airway epithelial monolayers mounted in Ussing chambers. Cells obtained from freshly excised human, dog, sheep or rodent airways are seeded onto porous 0.4 micron Snapwell™ Inserts (CoStar), cultured at air-liquid interface (ALI) conditions in hormonally defined media, and assayed for sodium transport activity (ISC) while bathed in Krebs Bicarbonate Ringer (KBR) in Using chambers. All test drug additions are to the lumenal bath with half-log dose addition protocols (from 1×10^−11 M to 3×10^−5M), and the cumulative change in ISC (inhibition) recorded. All drugs are prepared in dimethyl sulfoxide as stock solutions at a concentration of […] and stored at −20° C. Eight preparations are typically run in parallel; two preparations per run incorporate amiloride and/or benzamil as positive controls. After the maximal concentration ([…]) is administered, the lumenal bath is exchanged three times with fresh drug-free KBR solution, and the resultant ISCmeasured after each wash for approximately 5 minutes in duration. Reversibility is defined as the percent return to the baseline value for sodium current after the third wash. All data from the voltage clamps are collected via a computer interface and analyzed off-line.
Dose-effect relationships for all compounds are considered and analyzed by the Prism 3.0 program. IC50 values, maximal effective concentrations, and reversibility are calculated and compared to amiloride and benzamil as positive controls.
Amiloride was also tested in this assay as a positive control. The results for the compounds of the present invention are reported as fold-enhancement values relative to amiloride.

With `Cl.N=C(NCCCCc1ccc(O)cc1O)NC(=O)c1nc(Cl)c(N)nc1N` [drawing 26 Position 2,4 R H, 4-(2,4-Dihydroxyphenyl)butylamidino-3,5-diamino-6-chloropyrazinecarboxamide hydrochloride], the “Fold Enhancement Over Amiloride” value is on record as 14.9 fold.

As for `Cl.N=C(NCCCCc1ccc(O)c(O)c1)NC(=O)c1nc(Cl)c(N)nc1N` [drawing 26 Position 3,4 R H, 4-(3,4-Dihydroxyphenyl)butylamidino-3,5-diamino-6-chloropyrazinecarboxamide hydrochloride], the “Fold Enhancement Over Amiloride” value amounted to 15.1 fold.

As for `Cl.N=C(NCCCc1ccc(O)cc1)NC(=O)c1nc(Cl)c(N)nc1N` [drawing 27 n 3 Position of R 4 R OH, 3-(4-Hydroxyphenyl)propylamidino-3,5-diamino-6-chloropyrazinecarboxamide hydrochloride], the “Fold Enhancement Over Amiloride” value worked out at 5.2 fold.

`Cl.N=C(NCCCCc1ccc(O)cc1)NC(=O)c1nc(Cl)c(N)nc1N` [drawing 27 n 4 Position of R 4 R OH, 4-(4-hydroxyphenyl)butylamidino-3,5-diamino-6-chloropyrazinecarboxamide hydrochloride]: the “Fold Enhancement Over Amiloride” value is 50.3 fold.

Turning to `Cl.N=C(NCCCCCc1ccc(O)cc1)NC(=O)c1nc(Cl)c(N)nc1N` [drawing 27 n 5 Position of R 4 R OH, 5-(4-Hydroxyphenyl)pentylamidino-3,5-diamino-6-chloropyrazinecarboxamide hydrochloride], the “Fold Enhancement Over Amiloride” value is 14 fold.

On to `Br.N=C(NCCCOc1ccc(O)cc1)NC(=O)c1nc(Cl)c(N)nc1N` [drawing 29 a CH2 b O R H, 4-(4-Hydroxyphenyl)-4-oxabutylamidino-3,5-diamino-6-chloropyrazinecarboxamide hydrobromide], for which the “Fold Enhancement Over Amiloride” value is recorded as 16.1 fold.
